Test results taken from paper PMC2948233 (Organic & biomolecular chemistry, 2010).

Biological target: T1, phosphopantetheinyl transferase Sfp (Bacillus subtilis, UniProt P39135)
T1 sequence (P39135 1-224): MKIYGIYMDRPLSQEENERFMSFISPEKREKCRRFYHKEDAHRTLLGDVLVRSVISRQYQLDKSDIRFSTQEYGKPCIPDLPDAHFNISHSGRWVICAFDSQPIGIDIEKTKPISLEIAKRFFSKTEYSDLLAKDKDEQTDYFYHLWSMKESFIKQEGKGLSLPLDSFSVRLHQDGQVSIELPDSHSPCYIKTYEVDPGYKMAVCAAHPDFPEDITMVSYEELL
Assay: FRET-quench phosphopantetheinyl transferase assay
Type: biochemical

Row | IC50 [µM] | Compound
1 | 20 | Clc1ccc(C(c2ccc(Cl)cc2)n2cc[n+](CC(OCc3ccc(Cl)cc3Cl)c3ccc(Cl)cc3Cl)c2)cc1 (centres unmarked) [calmidazolium chloride]
2 | 3.2 | N=C1Sc2ccccc2C2=NCCCN12 [PD 404,182]
